{
  "source": "patent US20240398698A1",
  "about": "“CONAZOLANTIFUNGAL KETOE IN SOLUTION OR SUSPENSION FOR USE IN THE HUMAN EAR” (priority 2023, published 2024)",
  "origin": "cited, not measured here",
  "data": [
    {"smiles": "CC(=O)N1CCN(c2ccc(OCC3COC(Cn4ccnc4)(c4ccc(Cl)cc4Cl)O3)cc2)CC1", "note": "(stereo not drawn) [Ketoconazole, ketoconazole]", "values": [
      {"measurement": "solubility in acetic acid", "setting": "acetic acid", "result": "not soluble"},
      {"measurement": "solubility in alcohol", "setting": "alcohol", "result": "soluble"},
      {"measurement": "solubility in water", "setting": "water", "result": "poorly soluble"}
    ]}
  ]
}
